Laboratory results published in article PMC12257413, “Discovery of a Novel sp^3‑Rich M1 Positive Allosteric Modulators (PAMs) Chemotype via Scaffold Hopping” (ACS Medicinal Chemistry Letters, 2025).

Assay: Intrinsic clearance in rat hepatic microsomes, predicted hepatic clearance
Type: in vitro ADME
Details: predicted hepatic clearance from rat hepatic microsomes
Description: A similar approach was used to determine the degree of brain homogenate binding, which employed the same methodology and procedure with the following modifications: 1) a final compound concentration of 1 μM was used, 2) naïve rat brains were homogenized in DPBS (1:3 composition of brain: DPBS, w/w) using a Mini-Bead Beater™ machine in order to obtain brain homogenate, which was then treated in the same manner as the plasma samples in the previously described plasma protein binding assay. […]
same manner as the plasma samples in the previously described plasma protein binding assay. Fraction unbound for both plasma and brain samples was determined using Equation 4.
Equation 4 Determination of fraction unbound in plasma.
The diluted fraction unbound (fu2) in brain was calculated in the same manner by using brain homogenate rather than plasma. Undiluted fraction unbound for the brain was calculated using Equation 5 […]
Equation 5 Determination of fraction unbound in brain. […]
Human or rat hepatic microsomes (0.5 mg/mL) and 1 µM test compound were incubated in 100 mM potassium phosphate pH 7.4 buffer with 3 mM MgCl 2 at 37 °C with constant shaking. […] The in vitro half-life (1/2, min, Eq. 1), intrinsic clearance (CL int, mL/min/kg, Eq. 2), and subsequent predicted hepatic clearance (CLhep, mL/min/kg, Eq. 3) was determined employing the following equations: […]

Rat CLHEP | SMILES
1.97 L/h/kg | Cn1cc(-c2ccc(Cc3cc(C(=O)N[C@H]4CCOC[C@@H]4O)nn3C3CCCC3)cc2)cn1 [17g]
2.97 L/h/kg | Cn1cc(-c2ccc(Cc3cc(C(=O)N[C@H]4CCCC[C@@H]4O)nn3C3CCCC3)cc2)cn1 [17k]
